What is called IC50 is the concentration that inhibits the measured activity by half.

The target of one assay is DP IV (Homo sapiens, UniProt P27487). The assay can be described thus: DP IV inhibition IC50, parallel-synthesis compounds tested directly following synthesis (without purification). The class given is biochemical. Also on record: IC50 DP4; other: tested directly following parallel synthesis, without purification; compounds of formula (Ib) from parallel synthesis, tested directly following synthesis. Particulars: DP IV inhibition; compounds of formula (Ib) from parallel synthesis, tested directly following synthesis (without purification); read-out: IC50. In short, it runs like this: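 Porcine kidney or recombinant human enzyme (~40-50 μU/ml, HEPES buffer) hydrolysing Gly-Pro-pNA at room temperature, with 5% DMSO final; 11-point 1:2 dilutions from 100 μM final, in duplicate. pNA release read at 405 nm over ~18 min; slopes vs solvent control give residual activity, and IC50 comes from a 4-parameter fit.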
On to `NCc1c(-c2ccc(Cl)cc2Cl)ncn1CCc1ccc(Cl)cc1Cl` [Example 32b, C-{5-(2,4-dichloro-phenyl)-3-[2-(2,4-dichloro-phenyl)-ethyl]-3H-imidazol-4-yl}-methylamine], for which the concentration for half-maximal inhibition (IC50) was 15400 nM.

For the molecule `Cc1ccccc1Cn1cnc(-c2ccc(Cl)cc2Cl)c1CN` [Example 33b, C-[5-(2,4-dichloro-phenyl)-3-(2-methyl-benzyl)-3H-imidazol-4-yl]-methylamine], the half-inhibitory concentration (IC50) is 4600 nM.

In the case of `NCc1c(-c2ccc(Cl)cc2Cl)ncn1Cc1ccc(F)cc1F` [Example 54b, C-[5-(2,4-dichloro-phenyl)-3-(2,4-difluoro-benzyl)-3H-imidazol-4-yl]-methylamine], the IC50 worked out at 4600 nM.

Staying with this assay, now noted: tested directly following parallel synthesis, without purification; read-out: IC50 DP4.
As for `NCc1c(-c2ccc(Cl)cc2Cl)ncn1Cc1ccco1` [Example 33a, C-[5-(2,4-Dichloro-phenyl)-3-furan-2-ylmethyl-3H-imidazol-4-yl]-methylamine], the concentration for half-maximal inhibition (IC50) turned out to be 100 nM.

On to `NCc1c(-c2ccc(Cl)cc2Cl)ncn1Cc1ccccc1Cl` [Example 34a, C-[3-(2-Chloro-benzyl)-5-(2,4-di-chloro-phenyl)-3H-imid-azol-4-yl]-methyl-amine], for which the 50% inhibitory concentration (IC50) came out at 1000 nM.

For the molecule `NCc1c(-c2ccc(Cl)cc2Cl)ncn1Cc1ccc(F)cc1` [Example 36a, C-[5-(2,4-Dichloro-phenyl)-3-(4-fluoro-benzyl)-3H-imid-azol-4-yl]-methyl-amine], the IC50 stood at 100 nM.

With `NCc1c(-c2ccc(Cl)cc2Cl)ncn1Cc1c(F)cccc1F` [Example 37a, C-[5-(2,4-Dichloro-phenyl)-3-(2,6-difluoro-benzyl)-3H-imid-azol-4-yl]-methyl-amine], the IC50 was determined as 4600 nM.

Turning to `NCc1c(-c2ccc(Cl)cc2Cl)ncn1Cc1cccc(C(F)(F)F)c1` [Example 38a, C-[5-(2,4-Dichloro-phenyl)-3-(3-tri-fluoromethyl-benzyl)-3H-imid-azol-4-yl]-methyl-amine], the half-inhibitory concentration (IC50) turned out to be 1000 nM.

On to `NCc1c(-c2ccc(Cl)cc2Cl)ncn1Cc1ccc(F)cc1F` [Example 39a, C-[5-(2,4-Dichloro-phenyl)-3-(2,4-difluoro-benzyl)-3H-imid-azol-4-yl]-methyl-amine], for which the half-inhibitory concentration (IC50) stood at 1000 nM.

With `CCCn1cnc(-c2ccc(Cl)cc2Cl)c1CN` [Example 40a, C-[5-(2,4-Dichloro-phenyl)-3-pro-pyl-3H-imid-azol-4-yl]-methyl-amine], the IC50 amounted to 3700 nM.

On to `COc1cccc(Cn2cnc(-c3ccc(Cl)cc3Cl)c2CN)c1` [Example 41a, C-[5-(2,4-Dichloro-phenyl)-3-(3-methoxy-benzyl)-3H-imid-azol-4-yl]-methyl-amine], for which the IC50 worked out at 100 nM.

Turning to `NCc1c(-c2ccc(Cl)cc2Cl)ncn1Cc1cccc(F)c1` [Example 42a, C-[5-(2,4-Dichloro-phenyl)-3-(3-fluoro-benzyl)-3H-imid-azol-4-yl]-methyl-amine], the IC50 was 1000 nM.

`NCc1c(-c2ccc(Cl)cc2Cl)ncn1Cc1ccsc1` [Example 43a, C-[5-(2,4-Dichloro-phenyl)-3-thio-phen-3-yl-methyl-3H-imid-azol-4-yl]-methyl-amine]: the half-maximal inhibitory concentration (IC50) is 100 nM.

Turning to `NCc1c(-c2ccc(Cl)cc2Cl)ncn1Cc1cc(Br)ccc1F` [Example 44a, C-[3-(5-Bromo-2-fluoro-benzyl)-5-(2,4-dichloro-phenyl)-3H-imid-azol-4-yl]-methyl-amine], the IC50 is 30700 nM.

As for `NCc1c(-c2ccc(Cl)cc2Cl)ncn1Cc1c(F)cccc1Cl` [Example 45a, C-[3-(2-Chloro-6-fluoro-benzyl)-5-(2,4-dichloro-phenyl)-3H-imid-azol-4-yl]-methyl-amine], the 50% inhibitory concentration (IC50) was 1900 nM.

With `Cc1ccccc1Cn1cnc(-c2ccc(Cl)cc2Cl)c1CN` [Example 46a, C-[5-(2,4-Dichloro-phenyl)-3-(2-methyl-benzyl)-3H-imid-azol-4-yl]-methyl-amine], the IC50 is 1000 nM.

Consider `NCc1c(-c2ccc(Cl)cc2Cl)ncn1Cc1ccccc1` [Example 47a, C-[3-Ben-zyl-5-(2,4-dichloro-phenyl)-3H-imid-azol-4-yl]-methyl-amine], for which the concentration for half-maximal inhibition (IC50) is 100 nM.

Take `NCc1c(-c2ccc(Cl)cc2Cl)ncn1Cc1ccc2c(c1)OCO2` [Example 48a, C-[3-Ben-zo[1,3]di-oxol-5-yl-methyl-5-(2,4-dichloro-phenyl)-3H-imid-azol-4-yl]-methyl-amine]: the IC50 amounted to 100 nM.

On to `NCc1c(-c2ccc(Cl)cc2Cl)ncn1Cc1ccc(F)c(F)c1` [Example 49a, C-[5-(2,4-Dichloro-phenyl)-3-(3,4-difluoro-benzyl)-3H-imid-azol-4-yl]-methyl-amine], for which the half-inhibitory concentration (IC50) was 100 nM.

Consider `CCOc1ccccc1Cn1cnc(-c2ccc(Cl)cc2Cl)c1CN` [Example 50a, C-[5-(2,4-Dichloro-phenyl)-3-(2-ethoxy-benzyl)-3H-imid-azol-4-yl]-methyl-amine], for which the half-inhibitory concentration (IC50) was found to be 100 nM.

`NCc1c(-c2ccc(Cl)cc2Cl)ncn1Cc1ccccc1C(F)(F)F` [Example 51a, C-[5-(2,4-Dichloro-phenyl)-3-(2-tri-fluoromethyl-benzyl)-3H-imid-dazol-4-yl]-methyl-amine]: the concentration for half-maximal inhibition (IC50) came out at 3700 nM.

For `NCc1c(-c2ccc(Cl)cc2Cl)ncn1Cc1cccc(Cl)c1Cl` [Example 52a, C-[3-(2,3-Dichloro-benzyl)-5-(2,4-dichloro-phenyl)-3H-imid-azol-4-yl]-methyl-amine], the 50% inhibitory concentration (IC50) came to 2800 nM.

For `CC(C)(C)Cn1cnc(-c2ccc(Cl)cc2Cl)c1CN` [Example 53a, C-[5-(2,4-Dichloro-phenyl)-3-(2,2-dimethyl-propyl)-3H-imid-azol-4-yl]-methyl-amine], the IC50 amounted to 1000 nM.

Consider `NCc1c(-c2ccc(Cl)cc2Cl)ncn1Cc1ccc(Cl)cc1` [Example 54a, C-[3-(4-Chloro-benzyl)-5-(2,4-dichloro-phenyl)-3H-imid-azol-4-yl]-methyl-amine], for which the IC50 amounted to 1900 nM.

For `NCc1c(-c2ccc(Cl)cc2Cl)ncn1Cc1ccccc1OC(F)(F)F` [Example 55a, C-[5-(2,4-Dichloro-phenyl)-3-(2-tri-fluorometh-oxy-benzyl)-3H-imid-azol-4-yl]-methyl-amine], the half-maximal inhibitory concentration (IC50) came out at 100 nM.

Take `Cc1ccc(Cn2cnc(-c3ccc(Cl)cc3Cl)c2CN)cc1` [Example 56a, C-[5-(2,4-Dichloro-phenyl)-3-(4-methyl-benzyl)-3H-imid-azol-4-yl]-methyl-amine]: the IC50 was 2800 nM.

Turning to `NCc1c(-c2ccc(Cl)cc2Cl)ncn1Cc1ccc(Cl)cc1Cl` [Example 57a, C-[3-(2,4-Dichloro-benzyl)-5-(2,4-dichloro-phenyl)-3H-imid-azol-4-yl]-methyl-amine], the IC50 was 9100 nM.

With `NCc1c(-c2ccc(Cl)cc2Cl)ncn1Cc1ccc(Cl)c(Cl)c1` [Example 58a, C-[3-(3,4-Dichloro-benzyl)-5-(2,4-dichloro-phenyl)-3H-imid-azol-4-yl]-methyl-amine], the half-inhibitory concentration (IC50) came out at 1900 nM.

With `CCn1cnc(-c2ccc(Cl)cc2Cl)c1CN` [Example 59a, C-[5-(2,4-Dichloro-phenyl)-3-eth-yl-3H-imid-azol-4-yl]-methyl-amine], the IC50 was 25300 nM.

In the case of `NCc1c(-c2ccc(Cl)cc2Cl)ncn1Cc1c(Cl)cccc1Cl` [Example 60a, C-[3-(2,6-Dichloro-benzyl)-5-(2,4-dichloro-phenyl)-3H-imid-azol-4-yl]-methyl-amine], the IC50 is 2800 nM.

Regarding `NCc1c(-c2ccc(Cl)cc2Cl)ncn1Cc1cc(F)ccc1F` [Example 61a, C-[5-(2,4-Dichloro-phenyl)-3-(2,5-difluoro-benzyl)-3H-imid-azol-4-yl]-methyl-amine], the IC50 was determined as 1900 nM.

On to `NCc1c(-c2ccc(Cl)cc2Cl)ncn1Cc1ccccc1F` [Example 62a, C-[5-(2,4-Dichloro-phenyl)-3-(2-fluoro-benzyl)-3H-imid-azol-4-yl]-methyl-amine], for which the IC50 was 100 nM.

Turning to `NCc1c(-c2ccc(Cl)cc2Cl)ncn1Cc1ccc(F)cc1Cl` [Example 63a, C-[3-(2-Chloro-4-fluoro-benzyl)-5-(2,4-di-chloro-phenyl)-3H-imid-azol-4-yl]-methyl-amine], the IC50 was 1900 nM.

`Cn1cccc1Cn1cnc(-c2ccc(Cl)cc2Cl)c1CN` [Example 64a, C-[5-(2,4-Dichloro-phenyl)-3-(1-methyl-1H-pyrrol-2-yl-methyl)-3H-imid-azol-4-yl]-methyl-amine]: the IC50 turned out to be 27100 nM.

Regarding `NCc1c(-c2ccc(Cl)cc2Cl)ncn1Cc1ccccn1` [Example 65a, C-[5-(2,4-Dichloro-phenyl)-3-pyri-din-2-yl-methyl-3H-imid-azol-4-yl]-methyl-amine], the IC50 came to 1900 nM.

Turning to `NCc1c(-c2ccc(Cl)cc2Cl)ncn1Cc1cccnc1` [Example 66a, C-[5-(2,4-Dichloro-phenyl)-3-pyri-din-3-yl-methyl-3H-imid-azol-4-yl]-methyl-amine], the IC50 turned out to be 100 nM.

As to `Cc1ccc(-c2ncn(Cc3ccsc3)c2CN)c(C)c1` [Example 67a, C-[5-(2,4-Dimethyl-phenyl)-3-thio-phen-3-yl-methyl-3H-imid-azol-4-yl]-methyl-amine], the IC50 was determined as 42400 nM.

As to `Cc1ccc(-c2ncn(Cc3cc(Br)ccc3F)c2CN)c(C)c1` [Example 68a, C-[3-(5-Bro-mo-2-fluoro-benzyl)-5-(2,4-dimethyl-phenyl)-3H-imid-azol-4-yl]-methyl-amine], the IC50 stood at 37900 nM.

For the molecule `Cc1ccc(-c2ncn(Cc3ccccc3)c2CN)c(C)c1` [Example 69a, C-[3-Benzyl-5-(2,4-di-methyl-phenyl)-3H-imid-azol-4-yl]-methyl-amine], the IC50 stood at 40600 nM.

As to `CCOc1ccccc1Cn1cnc(-c2ccc(C)cc2C)c1CN` [Example 70a, C-[5-(2,4-Dimethyl-phenyl)-3-(2-ethoxy-benzyl)-3H-imid-azol-4-yl]-methyl-amine], the IC50 came out at 16300 nM.

Source of the values: patent publication US7728146B2, “Enzyme inhibitors” (Probiodrug AG, priority 2006, dated 2010).
